Data published in US5629347A, “Aromatic compounds, pharmaceutical compositions containing them and their use in therapy” (Merck Sharp & Dohme Ltd., priority 1991, dated 1997).
Counter-ions that a name gives are not always drawn.

biological target: human NK1R (Homo sapiens, UniProt P25103); assay: biochemical; type: binding; conditions: 1 h; @ 0.3 μM; read-out: Substance P antagonism (%)
Procedure: To express the cloned human neurokinin-1-receotor (NK1R) transiently in COS, the cDNA for the human NK1R was cloned into the expression vector pCDM9 which was derived from pCDM8 (INVITROGEN) by inserting the ampicillin resistance gene (nucleotide 1973 to 2964 from BLUESCRIPT SK+ (trademark, […], La Jolla, Calif., U.S.A.)) into the Sac II site. Transfection of 20 ug of the plasmid DNA into 10 million COS cells was achieved by electroporation in 800 μl of transfection buffer (135 mM NaCl, 1.2 mM CaCl2, 1.2 mM MgCl2, 2.4 mM K2 HPO4, 0.6 mM KH2 PO4, 10 mM glucose, 10 mM N-2-hydroxyethyl-piperazine-N'-2-ethane sulphonic acid (HEPES) pH 7.4) at 260 V and 950 μF using the IBI GENEZAPPER (trademark IBI, New Haven, Conn., U.S.A.). The cells were incubated in 10% fetal calf serum, 2 mM glutamine, 100 U/ml penicillin-streptomycin, and 90% DMEM media (GIBCO, Grand Island, N.Y., U.S.A.) in 5% CO2 at 37° C. for three days before the binding assay.
To establish a stable cell line expressing cloned human NK1R, the cDNA was subcloned into the vector pRcCMV (INVITROGEN). Transfection of 20 ug of the plasmid DNA into CHO cells was achieved by electroporation in 800 μl of transfection buffer supplemented with 0.625 mg/ml Herring sperm DNA at 300 V and 950 μF using the IBI GENEZAPPER (IBI). The transfected cells were incubated. in CHO media [10% fetal calf serum, 100 U/ml penicillin-streptomycin, 2 mM glutamine, 1/500 hypoxanthinethymidine (ATCC), 90% IMDM media (JRH BIOSCIENCES, Lenexa, Kans., U.S.A.), 0.7 mg/ml G418 (GIBCO)] in 5% CO2 at 37° C. until colonies were visible. Each colony was separated and propagated. The cell clone with the highest number of human NK1R was selected for subsequent applications such as drug screening.
The binding assay of human NK1R expressed in either COS or CHO cells is based on the use of ^125 I-substance P (^125 I-SP, from DU PONT, Boston, Mass.) as a radioactively labeled ligand which competes with unlabeled substance P or any other ligand for binding to the human NK1R. […] The tubes were incubated at 4° C. or at room temperature for 1 hour with gentle shaking. The bound radioactivity was separated from unbound radioactivity by GF/C filter (BRANDEL, Gaithersburg, Md.) which was prewetted with 0.1% polyethylenimine. The filter was washed with 3 ml of wash buffer (50 mM Tris pH 7.5, 5 mM MnCl2, 150 mM NaCl) three times and its radioactivity was determined by gamma counter.

human NK1R, sequence (P25103 whole entry): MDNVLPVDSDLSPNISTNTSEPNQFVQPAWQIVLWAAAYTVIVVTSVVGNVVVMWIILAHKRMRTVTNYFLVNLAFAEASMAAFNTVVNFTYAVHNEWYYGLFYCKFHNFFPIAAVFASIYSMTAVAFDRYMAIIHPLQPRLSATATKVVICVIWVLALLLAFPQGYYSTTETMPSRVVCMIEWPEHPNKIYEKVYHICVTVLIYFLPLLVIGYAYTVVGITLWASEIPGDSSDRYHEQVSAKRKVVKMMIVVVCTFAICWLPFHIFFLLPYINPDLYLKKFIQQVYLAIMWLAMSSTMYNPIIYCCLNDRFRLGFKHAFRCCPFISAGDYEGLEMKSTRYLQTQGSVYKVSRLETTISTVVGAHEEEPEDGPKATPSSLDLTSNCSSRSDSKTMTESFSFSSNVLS

inhibition at 0.3 µM [%] | SMILES
42 | CC(c1cccc(Cl)c1)C(N)COCc1cc(C(F)(F)F)cc(C(F)(F)F)c1 (single isomer, unassigned) [71 (diastereomer B), 2-Amino-1-((3,5-bis(trifluoromethyl)phenyl)methyloxy)-3-(3-chlorophenyl)-butane]

same assay, conditions: 1 h; @ 03 μM; read-out: Substance P antagonism (%)

inhibition at 0.3 µM [%] | SMILES
50 | O=C(Nc1ccccc1)NC(COCc1cc(C(F)(F)F)cc(C(F)(F)F)c1)C(c1ccccc1)c1ccccc1 (stereo not drawn) [Example 43, N-(1-((3',5'-Bis(trifluoromethyl)phenyl)methyloxy)-3,3-diphenylprop-2-yl)-N'-phenylurea]

same assay, conditions: displacement of 125I-substance P; human NK1R in COS or CHO cells

IC50 [nM] | SMILES
18 | Cc1cc(C)cc(COC[C@@H](C(c2ccccc2)c2ccccc2)N(C)C)c1 [Example 56, (R)-2-Dimethylammonium-1-((3,5-dimethylphenyl)methyloxy)-3,3-diphenylpropane tosylate salt]
15 | Cc1cc(C)cc(COCC(NCC(=O)NCc2ccccc2)C(c2ccccc2)c2ccccc2)c1 (stereo not drawn) [Example 47, N-(1-(((3',5'-Dimethyl)phenyl)methyloxy)-3,3-diphenylprop-2-yl)glycylbenzamide oxalate salt]
700 | COc1ccccc1CNC(=O)C(N)C(c1ccccc1)c1ccccc1 (stereo not drawn) [Example 4, 2-Ammonium-3,3-diphenylpropanoyl-(2-methoxyphenyl)methylamide tosylate salt]
15 | O=C(O)CNC(COCc1cc(C(F)(F)F)cc(C(F)(F)F)c1)C(c1ccccc1)c1ccccc1 (stereo not drawn) [Example 44, N-(1-((3',5'-Bis(trifluoromethyl)phenyl)methyloxy)-3,3-diphenylprop-2-yl)glycine]
160 | Cc1cc(C)cc(COC(=O)C(N)C(c2ccccc2)c2ccccc2)c1 (stereo not drawn) [Example 5, (3,5-Dimethylphenyl)methyl 2-ammonium-3,3-diphenylpropanoate tosylate salt]
10 | CNC(COCc1cc(C)cc(C)c1)C(c1ccccc1)c1ccccc1 (stereo not drawn) [Example 6, 2-Methylammonium-1-((3,5-dimethylphenyl)methyloxy)-3,3-diphenylpropane oxalate salt]
140 | NC(COCc1cccc(I)c1)C(c1ccccc1)c1ccccc1 (stereo not drawn) [Example 26, oxalate salt]
200 | NC(COCc1cccc(Br)c1)C(c1ccccc1)c1ccccc1 (stereo not drawn) [Example 31, 2-Ammonium-1-((3-bromophenyl)methyloxy)-3,3-diphenylpropane oxalate salt]
600 | NC(COCc1ccccc1)C(c1ccccc1)c1ccccc1 (stereo not drawn) [Example 25, 2-Ammonium-1-benzyloxy-3,3-diphenylpropane oxalate salt]
4 | O=C1CN(C(COCc2cc(C(F)(F)F)cc(C(F)(F)F)c2)C(c2ccccc2)c2ccccc2)CCN1 (stereo not drawn) [Example 66, 4-((1-((3,5-Bis(trifluoromethyl)phenyl)methyloxy)-3,3-diphenyl)prop-2-yl)piperazinium-2-one hemi oxalate salt]
0.8 | NC(=O)CN[C@H](COCc1cc(C(F)(F)F)cc(C(F)(F)F)c1)C(c1ccccc1)c1ccccc1 [Example 57, (S)-1-((3',5'-Bis(trifluoromethyl)phenyl)methyloxy)-2-(((carboxamido)methyl)ammonium)-3,3-diphenylpropane oxalate salt]
19 | Cc1cc(C)cc(COCC(C(c2ccccc2)c2ccccc2)[N+](C)(C)C)c1 (stereo not drawn) [Example 12, 1-((3,5-Dimethylphenyl)methyloxy)-3,3-diphenyl-2-(N,N,N-trimethylammonium)propane iodide salt]
30 | O=C1CCC(C(=O)NC(COCc2cc(C(F)(F)F)cc(C(F)(F)F)c2)C(c2ccccc2)c2ccccc2)N1 (stereo not drawn) [Example 63, 1-((3,5-Bis(trifluoromethyl)phenyl)methyloxy)-3,3-diphenyl-2-(pyroglutamylamido)propane]
35 | Cc1cc(C)cc(COCC(NC=O)C(c2ccccc2)c2ccccc2)c1 (stereo not drawn) [Example 23, 2-Formamido-1-((3,5-dimethylphenyl)methyloxy)-3,3-diphenylpronane]
35 | CS(=O)(=O)NC(COCc1cc(C(F)(F)F)cc(C(F)(F)F)c1)C(c1ccccc1)c1ccccc1 (stereo not drawn) [Example 69, 1-((3,5-Bis(trifluoromethyl)phenyl)methyloxy)-3,3-diphenyl-2-methylsulphonamidopropane]
45 | Cc1cc(C)cc(COCC(NCCO)C(c2ccccc2)c2ccccc2)c1 (stereo not drawn) [Example 22, 2-(N-(2-Hydroxyethyl)ammonium)-1-((3,5-dimethylphenyl)methyloxy)-3,3-diphenylpropane oxalate salt]

IC50 [nM] | SMILES
0.5 | CC(NC(COCc1cc(C(F)(F)F)cc(C(F)(F)F)c1)C(c1ccccc1)c1ccccc1)C(N)=O (single isomer, unassigned) [41 (diastereomer B), 1-((3',5'-Bis(trifluoromethyl)phenyl)methyloxy)-2-((1-(carboxamido)ethyl)ammonium)-3,3-diphenylpropane oxalate salt]
1 | O=C(CNC(COCc1cc(C(F)(F)F)cc(C(F)(F)F)c1)C(c1ccccc1)c1ccccc1)NCCO (stereo not drawn) [Example 50, N-(1-((3',5'-Bis(trifluoromethyl)phenyl)methyloxy)-3,3-diphenylprop-2-yl)glycine 2-hydroxyethylamide]
580 | Cc1cc(C)cc(COCC(NC(=O)c2ccccc2)C(c2ccccc2)c2ccccc2)c1 (stereo not drawn) [Example 40, 2-Benzamido-1-(((3,5-dimethyl)phenyl)methyloxy)3,3-diphenylpropane]
200 | CC(=O)N(C)C(COCc1cc(C)cc(C)c1)C(c1ccccc1)c1ccccc1 (stereo not drawn) [Example 37]
400 | Cc1cc(CNCC(N)C(c2ccccc2)c2ccccc2)cc(C(F)(F)F)c1 (stereo not drawn) [Example 68, 2-Ammonium-3,3-diphenyl-1-((3-methyl, 5-trifluoromethyl)phenyl)methylamino)propane oxalate salt]
40 | CNC(=O)NC(COCc1cc(C(F)(F)F)cc(C(F)(F)F)c1)C(c1ccccc1)c1ccccc1 (stereo not drawn) [Example 42, N-(1-((3',5'-Bis(trifluoromethyl)phenyl)methyloxy)-3,3-diphenylprop-2-yl)-N'-methyl urea]
20 | Cc1cc(Br)cc(COCC(N)C(c2ccccc2)c2ccccc2)c1 (stereo not drawn) [Example 33, 2-Ammonium-1-((3-bromo-5-methylphenyl)methyloxy)-3,3-diphenylpropane oxalate salt]
30 | NC(COCc1cc(Br)cc(Br)c1)C(c1ccccc1)c1ccccc1 (stereo not drawn) [Example 32, 2-Ammonium-1-((3,5-dibromophenyl)methyloxy)-3,3-diphenylpropane oxalate salt]
20 | CCNC(COCc1cc(C)cc(C)c1)C(c1ccccc1)c1ccccc1 (stereo not drawn) [Example 7, 2-Ethylammonium-1-((3,5-dimethylphenyl)methyloxy)-3,3-diphenylpropane oxalate salt]
300 | Cc1ccc(C)c(COCC(N)C(c2ccccc2)c2ccccc2)c1 (stereo not drawn) [Example 28, 2-Ammonium-1-((2,5-dimethylphenyl)methyloxy)-3,3-diphenylpropane oxalate salt]
15 | CN(C)C(=O)CN(C)C(COCc1cc(C(F)(F)F)cc(C(F)(F)F)c1)C(c1ccccc1)c1ccccc1 (stereo not drawn) [Example 49, N-(1-((3',5'-Bis(trifluoromethyl)phenyl)methyloxy)-3,3-diphenylprop-2-yl)-N-methylglycine dimethylamide oxalate salt]
70 | Cc1cc(C)cc(COCC(C(c2ccccc2)c2ccccc2)N2CCCCC2)c1 (stereo not drawn) [Example 14, 3,3-Diphenyl-1-((3,5-dimethylphenyl)methyloxy)-2-(piperidin-1-yl)propane hydrochloride salt]
320 | Cc1cc(C)cc(COCC(NCc2ccccc2)C(c2ccccc2)c2ccccc2)c1 (stereo not drawn) [Example 11, 2-Benzylammonium-1-((3,5-dimethylphenyl)methyloxy)-3,3-diphenyl propane]
70 | COc1cc(COCC(N)C(c2ccccc2)c2ccccc2)cc(OC)c1 (stereo not drawn) [Example 27, 2-Ammonium-1-((3,5-dimethoxyphenyl)methyloxy-3,3-diphenylpropane oxalate salt]
2.4 | Cc1cc(C)cc(COCC(C(c2ccccc2)c2ccccc2)N(C)C)c1 (stereo not drawn) [Example 2, 2-Dimethylammonium-1-((3,5-dimethylphenyl)methyloxy)-3,3-diphenylpropane tosylate salt]
